This is an account of results in ChEMBL document CHEMBL5344455, “Discovery and Characterization of Active CBP/EP300 Degraders Targeting the HAT Domain” (ACS Med Chem Lett, 2024).

SMILES strings stand for the structures. pEC50, pIC50: −log10 of the molar value. Calls of active or inactive are those of the source. The calls are words filed in the database; no cut-off is given here.

The test system of test [1] is LP-1. Description: Protac activity at IAP/EP300 in human LP-1 cells assessed as protein remaining at 5 uM after 16 hrs by Western blotting analysis. The format is cell-based. In general terms: A western blot detects proteins with antibodies after separation by electrophoresis.
The subject of test [2] is LP-1. Briefly: Protac activity at IAP/CBP in human LP-1 cells assessed as protein remaining at 5 uM after 16 hrs by Western blotting analysis. Format: cell-based.
Test [3] has as its system LP-1. Description: Antiproliferative activity against human LP-1 cells assessed as growth inhibition incubated for 3 days by fluorescence based assay. The format is functional. The settings on record: LP-1, 72 h, time 3 day.
Test [4] concerns the target T1, Protein cereblon/Histone acetyltransferase p300 (Homo sapiens) (UniProt Q09472+Q96SW2). Description: Protac activity at CRBN/EP300 in human LP-1 cells assessed as protein remaining at 5 uM after 16 hrs by Western blotting analysis. The format is cell-based.
The target in test [5] is T2, Protein cereblon/CREB-binding protein (Homo sapiens, UniProt Q92793+Q96SW2). Briefly: Protac activity at CRBN/CBP in human LP-1 cells assessed as protein remaining at 5 uM after 16 hrs by Western blotting analysis. Format: cell-based.
Target sequence in this assay (Q92793 2-2442 limits assumed): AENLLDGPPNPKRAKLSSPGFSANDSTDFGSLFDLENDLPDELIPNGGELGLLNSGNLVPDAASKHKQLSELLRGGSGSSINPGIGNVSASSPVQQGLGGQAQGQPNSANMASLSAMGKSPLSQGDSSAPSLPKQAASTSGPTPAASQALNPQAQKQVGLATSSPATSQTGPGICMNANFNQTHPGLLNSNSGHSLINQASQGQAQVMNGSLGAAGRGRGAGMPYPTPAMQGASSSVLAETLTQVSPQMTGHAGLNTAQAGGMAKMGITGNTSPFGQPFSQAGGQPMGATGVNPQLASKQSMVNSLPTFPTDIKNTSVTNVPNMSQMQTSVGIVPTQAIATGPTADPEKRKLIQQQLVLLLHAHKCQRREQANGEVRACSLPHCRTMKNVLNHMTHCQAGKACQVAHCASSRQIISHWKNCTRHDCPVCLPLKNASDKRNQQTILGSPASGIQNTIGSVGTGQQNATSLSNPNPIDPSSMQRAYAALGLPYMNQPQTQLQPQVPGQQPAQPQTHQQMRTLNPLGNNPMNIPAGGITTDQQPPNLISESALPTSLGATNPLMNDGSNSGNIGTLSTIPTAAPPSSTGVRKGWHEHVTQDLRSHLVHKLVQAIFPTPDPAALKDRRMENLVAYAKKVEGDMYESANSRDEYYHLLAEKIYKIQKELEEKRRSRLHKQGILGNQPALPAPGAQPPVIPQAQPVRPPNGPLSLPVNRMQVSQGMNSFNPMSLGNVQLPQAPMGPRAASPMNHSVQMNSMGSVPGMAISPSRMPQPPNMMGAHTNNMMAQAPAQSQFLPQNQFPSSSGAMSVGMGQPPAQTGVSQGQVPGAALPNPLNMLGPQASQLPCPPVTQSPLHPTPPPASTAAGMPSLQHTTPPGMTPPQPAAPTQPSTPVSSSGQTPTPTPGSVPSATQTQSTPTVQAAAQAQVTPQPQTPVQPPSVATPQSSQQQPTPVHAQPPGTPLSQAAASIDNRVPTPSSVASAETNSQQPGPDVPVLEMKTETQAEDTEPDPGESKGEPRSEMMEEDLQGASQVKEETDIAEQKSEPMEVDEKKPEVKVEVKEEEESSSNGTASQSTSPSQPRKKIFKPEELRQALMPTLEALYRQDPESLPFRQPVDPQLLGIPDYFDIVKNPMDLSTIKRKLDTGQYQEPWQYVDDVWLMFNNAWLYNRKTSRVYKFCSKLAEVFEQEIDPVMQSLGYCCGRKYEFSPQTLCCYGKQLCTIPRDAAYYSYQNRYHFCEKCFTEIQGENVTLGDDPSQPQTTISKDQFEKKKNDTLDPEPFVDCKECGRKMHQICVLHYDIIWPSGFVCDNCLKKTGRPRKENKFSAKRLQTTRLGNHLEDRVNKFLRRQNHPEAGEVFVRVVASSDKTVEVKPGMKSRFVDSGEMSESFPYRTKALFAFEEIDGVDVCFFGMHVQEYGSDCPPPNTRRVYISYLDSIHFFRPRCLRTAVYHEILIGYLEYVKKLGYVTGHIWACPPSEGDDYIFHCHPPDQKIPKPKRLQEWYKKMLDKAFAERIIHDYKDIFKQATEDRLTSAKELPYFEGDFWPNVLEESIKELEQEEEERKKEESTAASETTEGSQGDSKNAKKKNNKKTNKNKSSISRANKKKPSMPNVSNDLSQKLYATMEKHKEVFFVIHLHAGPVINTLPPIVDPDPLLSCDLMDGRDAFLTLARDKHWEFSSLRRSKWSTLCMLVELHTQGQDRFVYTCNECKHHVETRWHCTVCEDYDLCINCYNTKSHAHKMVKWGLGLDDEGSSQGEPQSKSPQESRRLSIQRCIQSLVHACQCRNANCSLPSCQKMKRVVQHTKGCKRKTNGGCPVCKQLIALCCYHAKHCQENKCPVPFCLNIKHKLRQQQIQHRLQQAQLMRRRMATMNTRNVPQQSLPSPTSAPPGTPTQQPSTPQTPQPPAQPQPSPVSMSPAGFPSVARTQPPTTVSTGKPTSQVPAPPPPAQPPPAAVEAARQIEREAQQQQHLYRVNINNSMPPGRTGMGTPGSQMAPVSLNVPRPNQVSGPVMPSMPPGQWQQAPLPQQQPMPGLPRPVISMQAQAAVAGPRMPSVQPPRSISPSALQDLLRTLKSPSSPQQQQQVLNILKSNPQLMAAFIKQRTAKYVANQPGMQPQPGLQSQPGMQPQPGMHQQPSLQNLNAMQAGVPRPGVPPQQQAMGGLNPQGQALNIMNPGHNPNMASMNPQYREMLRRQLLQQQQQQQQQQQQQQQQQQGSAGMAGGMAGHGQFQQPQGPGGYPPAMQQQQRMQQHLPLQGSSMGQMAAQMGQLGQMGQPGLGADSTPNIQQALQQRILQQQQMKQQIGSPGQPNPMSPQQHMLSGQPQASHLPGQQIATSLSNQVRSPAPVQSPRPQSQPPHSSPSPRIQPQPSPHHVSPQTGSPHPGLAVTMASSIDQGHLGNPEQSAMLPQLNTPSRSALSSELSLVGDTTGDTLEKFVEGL
Target sequence in this assay (Q96SW2 whole entry partner): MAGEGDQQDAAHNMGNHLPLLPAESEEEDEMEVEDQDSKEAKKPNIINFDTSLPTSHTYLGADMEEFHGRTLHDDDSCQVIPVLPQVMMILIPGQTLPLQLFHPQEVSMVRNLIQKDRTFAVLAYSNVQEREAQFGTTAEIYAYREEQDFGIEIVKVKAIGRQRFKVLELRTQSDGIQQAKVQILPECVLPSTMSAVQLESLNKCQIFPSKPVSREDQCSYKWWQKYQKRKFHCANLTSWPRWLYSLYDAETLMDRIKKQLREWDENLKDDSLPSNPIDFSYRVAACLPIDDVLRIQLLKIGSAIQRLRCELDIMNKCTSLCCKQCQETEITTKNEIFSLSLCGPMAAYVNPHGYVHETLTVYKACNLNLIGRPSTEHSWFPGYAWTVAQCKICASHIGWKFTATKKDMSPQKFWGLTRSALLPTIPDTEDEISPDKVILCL
The target in test [6] is T2, Protein cereblon/CREB-binding protein. Description: Protac activity at CRBN/CBP degradation in human LP-1 cells assessed as induction of ternary complex formation by measuring fluorescent foci at 2 uM after 6 hrs by fluorescence microscopic analysis. Format: cell-based.
For a further test, the target named is CREB-binding protein (Homo sapiens, UniProt Q92793). Description: Inhibition of CBP (unknown origin) by radiometric assay.
For test [7], the target named is von Hippel-Lindau disease tumor suppressor/Histone acetyltransferase p300 (Homo sapiens) (UniProt Q09472+P40337). Briefly: Protac activity at VHL/EP300 in human LP-1 cells assessed as protein remaining at 5 uM after 16 hrs by Western blotting analysis. The format is cell-based.
The target in test [8] is von Hippel-Lindau disease tumor suppressor/CREB-binding protein (Homo sapiens) (UniProt Q92793+P40337). Briefly: Protac activity at VHL/CBP in human LP-1 cells assessed as protein remaining at 5 uM after 16 hrs by Western blotting analysis. The format is cell-based.
Test [9] deals with T2, Protein cereblon/CREB-binding protein. Briefly: Protac activity at CRBN/CBP in human LP-1 cells after 16 hrs by Western blotting analysis. Format: cell-based.
In a further test the test system is SR. Description: Antiproliferative activity against human SR cells. The format is functional, cell-based.
The subject of a further test is CCRF-CEM. Briefly: Antiproliferative activity against human CCRF-CEM cells. Format: functional, cell-based.
For test [10], the target named is T2, Protein cereblon/CREB-binding protein. Description: Protac activity at CRBN/CBP in human MM1.S cells at 5 uM after 16 hrs by Western blotting analysis. Format: cell-based.
Target sequence in this assay (Q92793 2-2442 limits assumed): as the sequence (Q92793 2-2442 limits assumed) above
Target sequence in this assay (Q96SW2 whole entry partner): as the sequence (Q96SW2 whole entry partner) above
For test [11] the target is unchanged. Description: Protac activity at CRBN/CBP degradation in human LP-1 cells at 5 uM preincubated with pomalidomide for 1 hr followed by compound addition and measured after 16 hrs by Western blotting analysis. The format is cell-based.
Target sequence in this assay (Q92793 2-2442 limits assumed): as the sequence (Q92793 2-2442 limits assumed) above
Target sequence in this assay (Q96SW2 whole entry partner): as the sequence (Q96SW2 whole entry partner) above
The test system of a further test is MOLT-4. Briefly: Antiproliferative activity against human MOLT-4 cells. The format is functional, cell-based.
The next test concerns K562. Briefly: Antiproliferative activity against human K562 cells. The format is functional, cell-based.
For test [12], the target named is T2, Protein cereblon/CREB-binding protein. Description: Protac activity at CRBN/CBP degradation in human LP-1 cells at 5 uM preincubated with MG-132 for 1 hr followed by compound addition and measured after 16 hrs by Western blotting analysis. The format is cell-based.
Target sequence in this assay (Q92793 2-2442 limits assumed): as the sequence (Q92793 2-2442 limits assumed) above
Target sequence in this assay (Q96SW2 whole entry partner): as the sequence (Q96SW2 whole entry partner) above
In a further test the test system is RPMI-8226. Description: Antiproliferative activity against human RPMI-8226 cells. Format: functional, cell-based.
The target in test [13] is T2, Protein cereblon/CREB-binding protein. Briefly: Protac activity at CRBN/CBP in human LP-1 cells at 5 uM after 8 to 48 hrs by Western blotting analysis. Conditions: time 8-48 hrs. The format is cell-based.
Target sequence in this assay (Q92793 2-2442 limits assumed): as the sequence (Q92793 2-2442 limits assumed) above
Target sequence in this assay (Q96SW2 whole entry partner): as the sequence (Q96SW2 whole entry partner) above
The test system of a further test is HL-60(TB). Briefly: Antiproliferative activity against human HL-60(TB) cells. The format is functional, cell-based.
In test [14] the target is T2, Protein cereblon/CREB-binding protein. Briefly: Protac activity at CRBN/CBP degradation in human LP-1 cells at 5 uM preincubated with CPI-1612 for 1 hr followed by compound addition and measured after 16 hrs by Western blotting analysis. Format: cell-based.
Target sequence in this assay (Q92793 2-2442 limits assumed): as the sequence (Q92793 2-2442 limits assumed) above
Target sequence in this assay (Q96SW2 whole entry partner): as the sequence (Q96SW2 whole entry partner) above
The target of test [15] is T1, Protein cereblon/Histone acetyltransferase p300 (Homo sapiens). Description: Protac activity at CRBN/EP300 in human LP-1 cells at 5 uM after 16 hrs by Western blotting analysis. The format is cell-based.
Test [16] has as its target T2, Protein cereblon/CREB-binding protein. Briefly: Protac activity at CRBN/CBP in human LP-1 cells at 5 uM after 16 hrs by Western blotting analysis. The format is cell-based.
The target of test [17] is T1, Protein cereblon/Histone acetyltransferase p300 (Homo sapiens). Briefly: Protac activity at CRBN/EP300 in human MM1.S cells at 5 uM after 16 hrs by Western blotting analysis. The format is cell-based.

What is called GI50 is the concentration giving 50% growth inhibition. Turning to `CN[C@@H](C)C(=O)N[C@H](C(=O)N1C[C@@H](NC(=O)CCOCCOCCNC(=O)CCCn2cc(-c3ccc(NC(=O)[C@H](NC[C@@H](C)c4ccc(C#N)cc4)c4ccccc4)nc3)cn2)C[C@H]1C(=O)Nc1c(F)cccc1F)C(C)(C)C`, the Activity in the test with LP-1 [1] was 93%; in the test with LP-1 [2] it was 87%. For the same compound, the GI50 in the test with LP-1 [3] was > 10000 nM.

As for `CN[C@@H](C)C(=O)N[C@H](C(=O)N1C[C@@H](NC(=O)CCOCCOCCOCCNC(=O)CCCn2cc(-c3ccc(NC(=O)[C@H](NC[C@@H](C)c4ccc(C#N)cc4)c4ccccc4)nc3)cn2)C[C@H]1C(=O)Nc1c(F)cccc1F)C(C)(C)C`, the Activity with LP-1 [1] and with LP-1 [2] was > 95% throughout. Moreover, the GI50 with LP-1 [3] is 500 nM.

For the compound `C[C@H](CN[C@@H](C(=O)Nc1ccc(-c2cnn(CCCC(=O)NCCOCCOCCOCCOCCNc3cccc4c3C(=O)N(C3CCC(=O)NC3=O)C4=O)c2)cn1)c1ccccc1)c1ccc(C#N)cc1` (some centres not stated), the result in test [4] and in test [5] was Active.

Consider `C[C@H](CN[C@@H](C(=O)Nc1ccc(-c2cnn(CCCC(=O)NCCOCCOCCOCCOCCOCCOCCNc3cccc4c3C(=O)N(C3CCC(=O)N(C)C3=O)C4=O)c2)cn1)c1ccccc1)c1ccc(C#N)cc1` (some centres not stated), for which, in test [6], the result was inactive.

Take `C[C@H](CN[C@@H](C(=O)Nc1ccc(-c2cnn(CCCC(=O)NCCOCCOCCOCCNc3cccc4c3C(=O)N(C3CCC(=O)NC3=O)C4=O)c2)cn1)c1ccccc1)c1ccc(C#N)cc1` (some centres not stated): the Activity in test [4] is 76%; in test [5] it was > 95%. In the test on LP-1 [3], the GI50 was found to be 500 nM.

For orientation: pIC50 means −log10 of the IC50, conventionally taken in molar units. A lower pIC50 goes with a high IC50. On to `CCOCCNC(=O)CCn1cc(-c2ccc(NC(=O)C(NCC(C)c3ccc(C#N)cc3)c3ccccc3)nc2)cn1` (configuration not stated), for which the pIC50 on CREB-binding protein was 5.73.

On to `C[C@H](CN[C@@H](C(=O)Nc1ccc(-c2cnn(CCCC(=O)NCCCCCCCCNc3ccc4c(c3)C(=O)N(C3CCC(=O)NC3=O)C4=O)c2)cn1)c1ccccc1)c1ccc(C#N)cc1` (some centres not stated), for which the Activity in [4] is 95%; in [5], > 95%. The GI50 in the test on LP-1 [3] was found to be 260 nM.

As to `Cc1ncsc1-c1ccc(CNC(=O)[C@H]2C[C@H](O)CN2C(=O)[C@H](NC(=O)CCOCCOCCOCCNC(=O)CCCn2cc(-c3ccc(NC(=O)[C@H](NC[C@@H](C)c4ccc(C#N)cc4)c4ccccc4)nc3)cn2)C(C)(C)C)cc1`, the Activity in test [7] is 89%; in test [8] it was > 95%. In addition, in the test with LP-1 [3], the GI50 came out at 2200 nM.

The pEC50 is the negative decadic logarithm of the EC50, by convention in mol/L. In the case of `C[C@H](CN[C@@H](C(=O)Nc1ccc(-c2cnn(CCCC(=O)NCCOCCOCCOCCOCCOCCOCCNc3cccc4c3C(=O)N(C3CCC(=O)NC3=O)C4=O)c2)cn1)c1ccccc1)c1ccc(C#N)cc1` (some centres not stated), the pEC50 in [6] was 5.92; in [9], 5.89. Further, the outcome (in the test on SR; in the test on CCRF-CEM; in test [10]; in [11]; in the test on MOLT-4; with K562) was Active. Further, the result (in test [12]; in the test on RPMI-8226; in test [13]; in [4]; with HL-60(TB); in [5]) was Active. The result in test [14] was Active.

For the compound `Nc1cccc2c1C(=O)N(C1CCC(=O)NC1=O)C2=O` (configuration not stated) [POMALIDOMIDE], in the test with LP-1 [3], the GI50 was > 10000 nM.

As for `C[C@H](CN[C@@H](C(=O)Nc1ccc(-c2cnn(CCCC(=O)NCCOCCOCCOCCOCCOCCOCCOCCNc3cccc4c3C(=O)N(C3CCC(=O)NC3=O)C4=O)c2)cn1)c1ccccc1)c1ccc(C#N)cc1` (some centres not stated), the outcome in [4] and in test [5] was Active.

As for `Cc1ncsc1-c1ccc(CNC(=O)[C@@H]2C[C@@H](O)CN2C(=O)[C@@H](NC(=O)CCCCCCCNC(=O)CCCn2cc(-c3ccc(NC(=O)[C@H](NC[C@@H](C)c4ccc(C#N)cc4)c4ccccc4)nc3)cn2)C(C)(C)C)cc1`, the Activity in [7] and in test [8] was > 95% in each case. In addition, the GI50 in the test on LP-1 [3] was 4700 nM.

Consider `CN[C@@H](C)C(=O)N[C@H](C(=O)N1C[C@@H](NC(=O)CCCCCCCNC(=O)CCCn2cc(-c3ccc(NC(=O)[C@H](NC[C@@H](C)c4ccc(C#N)cc4)c4ccccc4)nc3)cn2)C[C@H]1C(=O)Nc1c(F)cccc1F)C(C)(C)C`, for which the Activity in the test with LP-1 [1] and in the test with LP-1 [2] was > 95% in each case. The GI50 in the test with LP-1 [3] was 2300 nM.

As for `C[C@H](CN[C@@H](C(=O)Nc1ccc(-c2cnn(CCCC(=O)NCCOCCOCCOCCOCCOCCNc3cccc4c3C(=O)N(C3CCC(=O)NC3=O)C4=O)c2)cn1)c1ccccc1)c1ccc(C#N)cc1` (some centres not stated), the result in test [4] and in [5] was Active.

Turning to `Cc1ncsc1-c1ccc(CNC(=O)[C@@H]2C[C@@H](O)CN2C(=O)[C@@H](NC(=O)COCCOCCNC(=O)CCCn2cc(-c3ccc(NC(=O)[C@H](NC[C@@H](C)c4ccc(C#N)cc4)c4ccccc4)nc3)cn2)C(C)(C)C)cc1`, the Activity in [7] and in [8] was > 95% each time. The GI50 in the test with LP-1 [3] was found to be 1000 nM.

`COCCNC(=O)CCCCn1cc(-c2ccc(NC(=O)C(NCC(C)c3ccc(C#N)cc3)c3ccccc3)nc2)cn1` (configuration not stated) had a pIC50 on CREB-binding protein of 6.09.

On to `C[C@H](CN[C@@H](C(=O)Nc1ccc(-c2cnn(CCCC(=O)NCCCCCCCCNc3cccc4c3C(=O)N(C3CCC(=O)NC3=O)C4=O)c2)cn1)c1ccccc1)c1ccc(C#N)cc1` (some centres not stated), for which the Activity turned out to be 79% in test [4] and 87% in test [5]. The GI50 in the test on LP-1 [3] was 470 nM.

On to `C[C@H](CN[C@@H](C(=O)Nc1ccc(-c2cnn(CCCC(=O)NCCOCCOCCNc3cccc4c3C(=O)N(C3CCC(=O)NC3=O)C4=O)c2)cn1)c1ccccc1)c1ccc(C#N)cc1` (some centres not stated), for which the Activity in [4] was 79%; in test [5], > 95%. The GI50 with LP-1 [3] was found to be 330 nM.

For the compound `CCOCCNC(=O)CCCn1cc(-c2ccc(NC(=O)C(NCC(C)c3ccc(C#N)cc3)c3ccccc3)nc2)cn1` (configuration not stated), on CREB-binding protein, the pIC50 was 5.99.

Turning to `C[C@H](N(Cc1ccc(F)cc1)C(=O)CN1C(=O)O[C@@]2(CCc3cc(NC(=O)CCCCCCCCCCCNc4ccc5c(c4)C(=O)N(C4CCC(=O)NC4=O)C5=O)ccc32)C1=O)C(F)(F)F` (some centres not stated), the outcome in [15], in test [10], in test [16] and in test [17] was inactive.

In turn, `C[C@H](CN[C@@H](C(=O)Nc1ccc(-c2cnn(C)c2)cn1)c1ccccc1)c1ccc(C#N)cc1` gave a pIC50 on CREB-binding protein of 6.94. Besides, the GI50 in the test on LP-1 [3] came out at 5 nM.
